# Experimental data taken from article PMC5218480 (PLoS ONE, 2017).
# System: MV-4-11 cells
# Experiment: Gene expression microarray analysis (Affymetrix PrimeView) and GSEA
# Format: cell-based, human
# Design: RFU PODN (11730768_x_at) / Fold change /veh PODN (11730768_x_at) / RFU LINC00158 (11744669_a_at) / Fold change /veh LINC00158 (11744669_a_at) / RFU DUSP10 (11751237_a_at) / Fold change /veh DUSP10 (11751237_a_at) / RFU ID3 (11757404_x_at) / Fold change /veh ID3 (11757404_x_at) / RFU PLEKHG5 (11737974_s_at) / Fold change /veh PLEKHG5 (11737974_s_at) / RFU LRRC4B (11730491_at) / Fold change /veh LRRC4B (11730491_at) / RFU GIMAP4 (11747438_a_at) / Fold change /veh GIMAP4 (11747438_a_at) / RFU KRT8 (11758183_x_at) / Fold change /veh KRT8 (11758183_x_at) / RFU CNN1 (11734310_a_at) / Fold change /veh CNN1 (11734310_a_at) / RFU VPS37D (11726825_at) / Fold change /veh VPS37D (11726825_at) / RFU C10orf10 (11716522_x_at) / Fold change /veh C10orf10 (11716522_x_at) / RFU KIR2DL2 /// KIR2DL4 /// KIR2DL5A /// KIR2DL5B /// KIR2DS1 /// KIR2DS2 /// KIR2DS3 /// KIR2DS4 /// KIR3DL3 /// KIR3DL3 /// KIR3DS1 (11738374_at) / Fold change /veh KIR2DL2 /// KIR2DL4 /// KIR2DL5A /// KIR2DL5B /// KIR2DS1 /// KIR2DS2 /// KIR2DS3 /// KIR2DS4 /// KIR3DL3 /// KIR3DL3 /// KIR3DS1 (11738374_at) / RFU C1QL1 (11718748_at) / Fold change /veh C1QL1 (11718748_at) / RFU TMPRSS4 (11747572_a_at) / Fold change /veh TMPRSS4 (11747572_a_at) / RFU HAMP (11756126_x_at) / Fold change /veh HAMP (11756126_x_at) / RFU RNFT2 (11725882_a_at) / Fold change /veh RNFT2 (11725882_a_at) / RFU NR4A2 (11747474_a_at) / Fold change /veh NR4A2 (11747474_a_at) / RFU ABCC12 (11746883_a_at) / Fold change /veh ABCC12 (11746883_a_at) / RFU TMEM136 (11760407_x_at) / Fold change /veh TMEM136 (11760407_x_at) / RFU CLDN22 /// WWC2 (11732394_at) / Fold change /veh CLDN22 /// WWC2 (11732394_at) / RFU HLA-DPB1 (11760878_x_at) / Fold change /veh HLA-DPB1 (11760878_x_at) / RFU SPINT1 (11716480_a_at) / Fold change /veh SPINT1 (11716480_a_at) / RFU GAP43 (11754022_s_at) / Fold change /veh GAP43 (11754022_s_at) / RFU A4GNT (11735810_at) / Fold change /veh A4GNT (11735810_at) / RFU PRB3 (11715151_x_at) / Fold change /veh PRB3 (11715151_x_at) / RFU TUBB4B (11761932_at) / Fold change /veh TUBB4B (11761932_at) / RFU CAPN14 (11732068_a_at) / Fold change /veh CAPN14 (11732068_a_at) / RFU TMCC2 (11721928_a_at) / Fold change /veh TMCC2 (11721928_a_at) / RFU IRGQ (11745062_a_at) / Fold change /veh IRGQ (11745062_a_at) / RFU FAM174B (11720279_a_at) / Fold change /veh FAM174B (11720279_a_at) / RFU TMPRSS4 (11748680_a_at) / Fold change /veh TMPRSS4 (11748680_a_at) / RFU FAM212B (11763350_a_at) / Fold change /veh FAM212B (11763350_a_at) / RFU PLEKHG5 (11743358_a_at) / Fold change /veh PLEKHG5 (11743358_a_at) / RFU ZSCAN30 (11745921_a_at) / Fold change /veh ZSCAN30 (11745921_a_at) / RFU CMKLR1 (11741424_a_at) / Fold change /veh CMKLR1 (11741424_a_at) / RFU LOC101060620 /// MAPK8IP1 (11723275_at) / Fold change /veh LOC101060620 /// MAPK8IP1 (11723275_at) / RFU SPTSSB (11747773_x_at) / Fold change /veh SPTSSB (11747773_x_at) / RFU PRSS12 (11739890_at) / Fold change /veh PRSS12 (11739890_at) / RFU BIN1 (11741810_x_at) / Fold change /veh BIN1 (11741810_x_at) / RFU WNT11 (11732464_a_at) / Fold change /veh WNT11 (11732464_a_at) / RFU C10orf10 (11716521_a_at) / Fold change /veh C10orf10 (11716521_a_at) / RFU C5orf56 (11738089_at) / Fold change /veh C5orf56 (11738089_at) / RFU CYB561 (11721691_x_at) / Fold change /veh CYB561 (11721691_x_at) / RFU ANKRD19P (11752326_a_at) / Fold change /veh ANKRD19P (11752326_a_at) / RFU OR2T12 /// OR2T33 /// OR2T8 (11738714_s_at) / Fold change /veh OR2T12 /// OR2T33 /// OR2T8 (11738714_s_at) / RFU VCAN (11748164_a_at) / Fold change /veh VCAN (11748164_a_at) / RFU JSRP1 (11732532_at) / Fold change /veh JSRP1 (11732532_at) / RFU KRTAP10-11 (11738290_x_at) / Fold change /veh KRTAP10-11 (11738290_x_at) / RFU MYO3A (11730013_a_at) / Fold change /veh MYO3A (11730013_a_at) / RFU EBF3 (11725865_a_at) / Fold change /veh EBF3 (11725865_a_at) / RFU CAMK2N1 (11719241_x_at) / Fold change /veh CAMK2N1 (11719241_x_at) / RFU C5orf56 (11738088_a_at) / Fold change /veh C5orf56 (11738088_a_at) / RFU OLFML3 (11715873_a_at) / Fold change /veh OLFML3 (11715873_a_at) / RFU LOC100653217 /// NTM (11731650_a_at) / Fold change /veh LOC100653217 /// NTM (11731650_a_at) / RFU MAPK11 (11762145_a_at) / Fold change /veh MAPK11 (11762145_a_at) / RFU FIZ1 (11724087_x_at) / Fold change /veh FIZ1 (11724087_x_at) / RFU OASL (11726364_x_at) / Fold change /veh OASL (11726364_x_at) / RFU SOX15 (11748057_x_at) / Fold change /veh SOX15 (11748057_x_at) / RFU CD79A (11719716_a_at) / Fold change /veh CD79A (11719716_a_at) / RFU HIST1H1D (11736915_at) / Fold change /veh HIST1H1D (11736915_at) / RFU CASKIN2 (11723855_a_at) / Fold change /veh CASKIN2 (11723855_a_at) / RFU LOC730098 (11760151_x_at) / Fold change /veh LOC730098 (11760151_x_at) / RFU OR4N2 (11742367_at) / Fold change /veh OR4N2 (11742367_at) / RFU PRRT2 (11749266_a_at) / Fold change /veh PRRT2 (11749266_a_at) / RFU SNX32 (11753110_a_at) / Fold change /veh SNX32 (11753110_a_at) / RFU CDHR5 (11726645_a_at) / Fold change /veh CDHR5 (11726645_a_at) / RFU RCAN1 (11760418_a_at) / Fold change /veh RCAN1 (11760418_a_at) / RFU FAM167A (11723789_a_at) / Fold change /veh FAM167A (11723789_a_at) / RFU FAM26E (11764081_at) / Fold change /veh FAM26E (11764081_at) / RFU ISYNA1 (11749810_s_at) / Fold change /veh ISYNA1 (11749810_s_at) / RFU ACY1 (11761880_at) / Fold change /veh ACY1 (11761880_at) / RFU 11764098_at / Fold change /veh 11764098_at / RFU SAMD14 (11745864_x_at) / Fold change /veh SAMD14 (11745864_x_at) / RFU NPB (11741838_a_at) / Fold change /veh NPB (11741838_a_at) / RFU TMPRSS6 (11731388_a_at) / Fold change /veh TMPRSS6 (11731388_a_at) / RFU KRTAP10-2 (11738614_at) / Fold change /veh KRTAP10-2 (11738614_at) / RFU ARHGAP8 /// PRR5-ARHGAP8 (11727945_x_at) / Fold change /veh ARHGAP8 /// PRR5-ARHGAP8 (11727945_x_at) / RFU KRTAP5-7 /// NADSYN1 (11734609_at) / Fold change /veh KRTAP5-7 /// NADSYN1 (11734609_at) / RFU RASL12 (11751679_a_at) / Fold change /veh RASL12 (11751679_a_at) / RFU CDKN2B (11736163_a_at) / Fold change /veh CDKN2B (11736163_a_at) / RFU PRF1 (11729649_at) / Fold change /veh PRF1 (11729649_at) / RFU, ZNF638 /// ZNF638-IT1 / Fold change vs veh, ZNF638 /// ZNF638-IT1 / RFU, PANK3 / Fold change vs veh, PANK3 / RFU, SH3YL1 / Fold change vs veh, SH3YL1 / RFU, ZEB2 / Fold change vs veh, ZEB2 / RFU, NRIP1 / Fold change vs veh, NRIP1 / RFU, PTTG1IP / Fold change vs veh, PTTG1IP / RFU, CAPN2 / Fold change vs veh, CAPN2 / RFU, MED14 / Fold change vs veh, MED14 / RFU, SNORA58 / Fold change vs veh, SNORA58 / RFU, C1orf63 / Fold change vs veh, C1orf63 / RFU, LRRFIP1 / Fold change vs veh, LRRFIP1 / RFU, NDUFAF7 / Fold change vs veh, NDUFAF7 / RFU, SLC12A2 / Fold change vs veh, SLC12A2 / RFU, IBTK / Fold change vs veh, IBTK / RFU, ESF1 / Fold change vs veh, ESF1 / Fold change vs veh, TMEM50B / RFU, TAOK1 / Fold change vs veh, TAOK1 / RFU, ACBD3 / Fold change vs veh, ACBD3 / RFU, TMA16 / Fold change vs veh, TMA16 / RFU, RWDD3 / Fold change vs veh, RWDD3 / RFU, BCAT1 / Fold change vs veh, BCAT1 / RFU, EDEM3 / Fold change vs veh, EDEM3 / RFU, TMEM33 / Fold change vs veh, TMEM33 / RFU, WDR75 / Fold change vs veh, WDR75 / RFU, AHCTF1 / Fold change vs veh, AHCTF1 / RFU, TFRC / Fold change vs veh, TFRC / RFU, ZDHHC17 / Fold change vs veh, ZDHHC17 / RFU, NOM1 / Fold change vs veh, NOM1 / RFU, ARL8B / Fold change vs veh, ARL8B / RFU, ZBTB11 / Fold change vs veh, ZBTB11 / RFU, TAMM41 / Fold change vs veh, TAMM41 / RFU, KIAA1704 /// LOC100996395 / Fold change vs veh, KIAA1704 /// LOC100996395 / RFU, ING1 / Fold change vs veh, ING1 / RFU, TRMT61B / Fold change vs veh, TRMT61B / RFU, FUBP3 / Fold change vs veh, FUBP3 / RFU, TP53 / Fold change vs veh, TP53 / RFU, TNKS2 / Fold change vs veh, TNKS2 / RFU, ZFP14 / Fold change vs veh, ZFP14 / RFU, ACTR2 / Fold change vs veh, ACTR2 / RFU, PPP3R1 / Fold change vs veh, PPP3R1 / RFU, PIK3R1 / Fold change vs veh, PIK3R1 / RFU, HNRNPA1 / Fold change vs veh, HNRNPA1 / RFU, RNF170 / Fold change vs veh, RNF170 / RFU, ZNF28 / Fold change vs veh, ZNF28 / RFU, RNGTT / Fold change vs veh, RNGTT / RFU, OGT / Fold change vs veh, OGT / RFU, BRD1 / Fold change vs veh, BRD1 / RFU, MARS / Fold change vs veh, MARS / RFU, ZNF655 / Fold change vs veh, ZNF655 / RFU, FAHD1 / Fold change vs veh, FAHD1 / RFU, BDP1 / Fold change vs veh, BDP1 / RFU, LRRCC1 / Fold change vs veh, LRRCC1 / RFU, ARID1A / Fold change vs veh, ARID1A / RFU, ZNF146 / Fold change vs veh, ZNF146 / RFU, ZNF330 / Fold change vs veh, ZNF330 / RFU, GPN3 / Fold change vs veh, GPN3 / RFU, C9orf123 / Fold change vs veh, C9orf123 / RFU, N4BP2L2 / Fold change vs veh, N4BP2L2 / RFU, ARFIP1 / Fold change vs veh, ARFIP1 / RFU, FAM179B / Fold change vs veh, FAM179B / RFU, BCL10 / Fold change vs veh, BCL10 / RFU, UHRF1BP1L / Fold change vs veh, UHRF1BP1L / RFU, BET1 / Fold change vs veh, BET1 / RFU, CNOT2 / Fold change vs veh, CNOT2 / RFU, ZNF268 / Fold change vs veh, ZNF268 / Fold change vs veh, ZNF507 / RFU, DGCR2 / Fold change vs veh, DGCR2 / RFU, WDSUB1 / Fold change vs veh, WDSUB1 / Fold change vs veh, HSP90B1 /// MIR3652 / RFU, ADSS / Fold change vs veh, ADSS / RFU, GK / Fold change vs veh, GK / RFU, ZNF148 / Fold change vs veh, ZNF148 / RFU, TAF9 / Fold change vs veh, TAF9 / RFU, SLC1A5 / Fold change vs veh, SLC1A5 / RFU, SLMO2 / Fold change vs veh, SLMO2 / RFU, ABCC4 / Fold change vs veh, ABCC4 / RFU, LOC101060439 /// RAP1B / Fold change vs veh, LOC101060439 /// RAP1B / RFU, RFX7 / Fold change vs veh, RFX7 / RFU, GTPBP10 / Fold change vs veh, GTPBP10 / RFU, CNEP1R1 / Fold change vs veh, CNEP1R1 / RFU, BIVM-ERCC5 /// ERCC5 / Fold change vs veh, BIVM-ERCC5 /// ERCC5 / RFU, ILF3 / Fold change vs veh, ILF3 / RFU 11762660_at / Fold change /veh 11762660_at / RFU VCAN (11757783_s_at) / Fold change /veh VCAN (11757783_s_at) / RFU DDX43 (11728927_at) / Fold change /veh DDX43 (11728927_at) / RFU KRT8 (11758188_x_at) / Fold change /veh KRT8 (11758188_x_at) / RFU NKD1 (11759106_at) / Fold change /veh NKD1 (11759106_at) / RFU SRD5A1 (11742802_a_at) / Fold change /veh SRD5A1 (11742802_a_at) / RFU TPSAB1 /// TPSB2 (11721975_s_at) / Fold change /veh TPSAB1 /// TPSB2 (11721975_s_at) / RFU GSTM3 (11746129_a_at) / Fold change /veh GSTM3 (11746129_a_at) / RFU IL23R (11737362_x_at) / Fold change /veh IL23R (11737362_x_at) / RFU TMEM51 (11727254_a_at) / Fold change /veh TMEM51 (11727254_a_at) / RFU PIWIL2 (11732686_x_at) / Fold change /veh PIWIL2 (11732686_x_at) / RFU ORM1 (11744905_x_at) / Fold change /veh ORM1 (11744905_x_at) / RFU CCDC152 (11743942_at) / Fold change /veh CCDC152 (11743942_at) / RFU ECM1 (11717891_a_at) / Fold change /veh ECM1 (11717891_a_at) / RFU IL23R (11748794_a_at) / Fold change /veh IL23R (11748794_a_at) / RFU TNFAIP8L3 (11732012_x_at) / Fold change /veh TNFAIP8L3 (11732012_x_at) / RFU MBOAT4 (11741988_at) / Fold change /veh MBOAT4 (11741988_at) / RFU 11764193_at / Fold change /veh 11764193_at / RFU TMEM53 (11763286_at) / Fold change /veh TMEM53 (11763286_at) / RFU MAGEB2 (11727129_at) / Fold change /veh MAGEB2 (11727129_at) / RFU TMEM200A (11744735_a_at) / Fold change /veh TMEM200A (11744735_a_at) / RFU CCDC152 (11751479_a_at) / Fold change /veh CCDC152 (11751479_a_at) / RFU FAM211A (11726209_a_at) / Fold change /veh FAM211A (11726209_a_at) / RFU RGS16 (11746705_a_at) / Fold change /veh RGS16 (11746705_a_at) / RFU VCAN (11755009_s_at) / Fold change /veh VCAN (11755009_s_at) / RFU RHOB (11743442_s_at) / Fold change /veh RHOB (11743442_s_at) / RFU RGS16 (11720943_a_at) / Fold change /veh RGS16 (11720943_a_at) / RFU RGS16 (11720944_at) / Fold change /veh RGS16 (11720944_at) / RFU, VPS4B / Fold change vs veh, VPS4B / RFU, CREB1 / Fold change vs veh, CREB1 / RFU, DNAJC13 / Fold change vs veh, DNAJC13 / RFU, GNAQ / Fold change vs veh, GNAQ / RFU, CDK5R1 / Fold change vs veh, CDK5R1 / RFU, ZRANB3 / Fold change vs veh, ZRANB3 / RFU, CUL4A / Fold change vs veh, CUL4A / RFU, CCNY / Fold change vs veh, CCNY / RFU, UFL1 / Fold change vs veh, UFL1 / RFU, COG3 / Fold change vs veh, COG3 / RFU, DIAPH2 / Fold change vs veh, DIAPH2 / RFU, SKA2 / Fold change vs veh, SKA2 / RFU, AFF3 / Fold change vs veh, AFF3 / RFU, LMF1 / Fold change vs veh, LMF1 / RFU, IPO11 / Fold change vs veh, IPO11 / RFU, DFFB / Fold change vs veh, DFFB / RFU, FOXP1 / Fold change vs veh, FOXP1 / RFU, CARD8 / Fold change vs veh, CARD8 / RFU, STRN3 / Fold change vs veh, STRN3 / RFU, ADK / Fold change vs veh, ADK / RFU, RASSF2 / Fold change vs veh, RASSF2 / RFU, WIPF1 / Fold change vs veh, WIPF1 / RFU, LARP1B / Fold change vs veh, LARP1B / RFU, RASA1 / Fold change vs veh, RASA1 / RFU, RB1 / Fold change vs veh, RB1 / RFU, PPFIA1 / Fold change vs veh, PPFIA1 / RFU, MAT2A / Fold change vs veh, MAT2A / RFU, CCT5 / Fold change vs veh, CCT5 / RFU, WDR92 / Fold change vs veh, WDR92 / RFU, CUX1 / Fold change vs veh, CUX1 / RFU, TTC7A / Fold change vs veh, TTC7A / RFU, TMEM135 / Fold change vs veh, TMEM135 / RFU, DEPTOR / Fold change vs veh, DEPTOR / RFU, CPM / Fold change vs veh, CPM / RFU, DNAJB6 / Fold change vs veh, DNAJB6 / RFU, CACNA2D3 / Fold change vs veh, CACNA2D3 / RFU, DTX4 / Fold change vs veh, DTX4 / RFU, TFCP2 / Fold change vs veh, TFCP2 / RFU, GMCL1 /// GMCL1P1 / Fold change vs veh, GMCL1 /// GMCL1P1 / RFU, AEBP2 / Fold change vs veh, AEBP2 / RFU, SNHG1 /// SNORD22 /// SNORD25 /// SNORD26 /// SNORD27 /// SNORD28 /// SNORD29 /// SNORD31 / Fold change vs veh, SNHG1 /// SNORD22 /// SNORD25 /// SNORD26 /// SNORD27 /// SNORD28 /// SNORD29 /// SNORD31 / Fold change (Aza/veh), C12orf56 (ProbeSet 11735607_a_at) / Fold change (ACY-1035/veh), C12orf56 (ProbeSet 11735607_a_at) / Fold change (Aza/veh), FGFR1OP (ProbeSet 11751329_s_at) / Fold change (ACY-1035/veh), FGFR1OP (ProbeSet 11751329_s_at) / Fold change (Aza/veh), VPS36 (ProbeSet 11739960_a_at) / Fold change (ACY-1035/veh), VPS36 (ProbeSet 11739960_a_at) / RFU SYPL1 (11715823_x_at) / Fold change /veh SYPL1 (11715823_x_at) / RFU IGFBP7 (11715501_s_at) / Fold change /veh IGFBP7 (11715501_s_at) / RFU REEP3 (11722064_at) / Fold change /veh REEP3 (11722064_at) / RFU IGLL1 (11728026_x_at) / Fold change /veh IGLL1 (11728026_x_at): dose or concentration left out as unconfirmed
# Conditions: ProbeSet 11749781_s_at; LIST B
structure (smiles),measurement,value
Nc1ncn([C@@H]2O[C@H](CO)[C@@H](O)[C@H]2O)c(=O)n1 [azacitidine],"RFU, BCAT1",11.21 RFU
